Results as given in patent US20250176554A1, “NON-TOXIC […] IN WHICH OZONE SYNERGIZE WITH CARBON DIOXIDE” (priority 2022, published 2025).

Legend:
silkworm eggs = test: ozone then carbon dioxide fumigation of silkworm eggs, hatching; type: in vivo; details: ozone pressure 1.4 bar; carbon dioxide introduced for 20 minutes
Description: (§1) Using the same method as Embodiment 1, except that the treatment period of carbon dioxide is adjusted to 10-50 minutes. The evacuation pressure in the fumigation chamber in Step 2 is 0.3 bar. In Step 3, the pressure after the ozone input is controlled within 1.0-1.4 bar, and the pest-control treatment is conducted for 5 minutes. In Step 4, the fumigation chamber is evacuated to 0.3 bar. In Step 5, the pressure after the input of carbon dioxide (99.5% concentration) is controlled at 1.4 bar, and the pest-control treatment is conducted for 10-50 minutes.
Using the same experimental conditions as Embodiment 5, when the ozone pressure is 1.4 bar, silkworm eggs were used for testing.

coccid insects = test: two-stage ozone then carbon dioxide fumigation, text statements on the insects/pests; type: in vivo
Text: (§2) Step 1: Placing the pest control object into a sample bottle, which contains coccid insects, and sealing the sample bottle with a pore size of 10 um filter membrane. This configuration simulates the environment of insects or other creatures hiding deep inside fruits, within stems, or shielded by stacked fruit packages (this test was also validated using stacked sugar apples and wax apples, yielding similar results). The sample is then placed in a fumigation chamber.
(§3) Step 2: After closing the fumigation chamber, vacuuming the chamber to 0.2 bar-0.9 bar, then maintaining this lower pressure for about 2 minutes to confirm that the fumigation chamber is well sealed.
(§4) Step 3: Introducing ozone at a concentration ranging from 40 ppm to 160 ppm into the fumigation chamber until 1.0-1.7 bar, and fumigating for 3-20 minutes.
(§5) Step 4: Exhausting the gas from the fumigation chamber, then vacuuming it to 0.2-0.9 bar, and maintaining this low pressure for about 2 minutes.
(§6) Step 5: Introducing high-concentration carbon dioxide into the fumigation chamber until 1.0-1.7 bar, fumigating for 10-30 minutes.
(§7) Step 6: After the above pest control steps, exhausting the gases from the fumigation chamber and restoring the chamber to atmospheric pressure, then removing the tested objects.
(§8) Step 7: Spraying 0.5 wt % methylene blue aqueous solution (light blue) or 0.05 wt % neutral red staining solution (light red) onto the insects and waiting for 60 minutes. Well-stained insects indicate death. All values are expressed as mean±SD. ANOVA or other appropriate statistical analysis methods were used, with P<0.05 indicating a significant difference.

mite eggs = details: vacuum pumping then 60% CO2, normal temperature and normal pressure, at least 16 hours; cited from earlier work
dried apricot pests = details: CO2 under 0.5 times atmospheric pressure; cited from earlier work
pests [1] = details: CO2 with 1.8 times of the standard atmospheric pressure; cited from earlier work
red flour beetle = details: pressurized CO2, 5 times to 15 times of the standard atmospheric pressure; cited from earlier work
Icerya purchasi = test: two-stage ozone then carbon dioxide fumigation, lethal rate by staining; type: in vivo
Text: as §2, §3, §4, §5, §6, §7, §8
(§9) Using the same method as Embodiment 1, except that the concentration of the introduced ozone is adjusted (ranging from 40 ppm to 160 ppm). The pressure of the fumigation chamber in Step 2 is about 0.3 bar; in Step 3, it is about 1.3 bar, with the process lasting 5 minutes; in Step 4, it is about 0.3 bar; and in Step 5, the pressure is 1.3 bar, with the process lasting 15 minutes.
(§10) Using the same method as Embodiment 2, except that the evacuation pressure in Step 2 is adjusted (ranging from 0.2 bar to 0.9 bar); the concentration of the introduced ozone is approximately 70 ppm, and other parameters remain the same as those in Embodiment 2.
(§11) Using the same method as Embodiment 2, except that the ozone treatment duration in […] is adjusted (ranging from 3 to 30 minutes); the concentration of the introduced ozone is 70 ppm, and ozone is introduced until the pressure reaches 1.0 bar. Other parameters remain the same as those in Embodiment 2.
as §1

Pseudococcidae = test: as above; type: in vivo
Text: as §2, §3, §4, §5, §6, §7, §8, §9, §10, §11, §1

aphids = details: 10% CO2 in greenhouses; cited from earlier work
pests [2] = details: 60% CO2, asparagus; cited from earlier work
[3] = ozone at 1.0 bar 5 min, evacuation 0.3 bar, CO2 99.5% at 1.4 bar for 10 min
[4] = ozone at 1.0 bar 5 min, evacuation 0.3 bar, CO2 99.5% at 1.4 bar for 15 min
[5] = ozone at 1.0 bar 5 min, evacuation 0.3 bar, CO2 99.5% at 1.4 bar for 20 min
[6] = ozone at 1.0 bar 5 min, evacuation 0.3 bar, CO2 99.5% at 1.4 bar for 30 min
[7] = ozone at 1.0 bar 5 min, evacuation 0.3 bar, CO2 99.5% at 1.4 bar for 40 min
[8] = ozone at 1.4 bar 5 min, evacuation 0.3 bar, CO2 99.5% at 1.4 bar for 10 min
[9] = ozone at 1.4 bar 5 min, evacuation 0.3 bar, CO2 99.5% at 1.4 bar for 15 min
[10] = ozone at 1.4 bar 5 min, evacuation 0.3 bar, CO2 99.5% at 1.4 bar for 20 min
[11] = ozone at 1.4 bar 5 min, evacuation 0.3 bar, CO2 99.5% at 1.4 bar for 30 min
[12] = ozone at 1.4 bar 5 min, evacuation 0.3 bar, CO2 99.5% at 1.4 bar for 40 min
[13] = Step 2 vacuumed pressure 0.2 bar, ozone 70 ppm to 1.3 bar 5 min, then CO2 1.3 bar 15 min
[14] = Step 2 vacuumed pressure 0.3 bar, ozone 70 ppm to 1.3 bar 5 min, then CO2 1.3 bar 15 min
[15] = Step 2 vacuumed pressure 0.4 bar, ozone 70 ppm to 1.3 bar 5 min, then CO2 1.3 bar 15 min
[16] = Step 2 vacuumed pressure 0.5 bar, ozone 70 ppm to 1.3 bar 5 min, then CO2 1.3 bar 15 min
[17] = Step 2 vacuumed pressure 0.6 bar, ozone 70 ppm to 1.3 bar 5 min, then CO2 1.3 bar 15 min
[18] = Step 2 vacuumed pressure 0.9 bar, ozone 70 ppm to 1.3 bar 5 min, then CO2 1.3 bar 15 min
[19] = ozone 40 ppm to 1.3 bar 5 min, evacuation 0.3 bar, then CO2 1.3 bar 15 min
[20] = ozone 70 ppm to 1.0 bar for 3 min, evacuation 0.3 bar, then CO2 1.3 bar 15 min
[21] = ozone 70 ppm to 1.0 bar for 5 min, evacuation 0.3 bar, then CO2 1.3 bar 15 min
[22] = ozone 70 ppm to 1.0 bar for 10 min, evacuation 0.3 bar, then CO2 1.3 bar 15 min
[23] = ozone 70 ppm to 1.0 bar for 15 min, evacuation 0.3 bar, then CO2 1.3 bar 15 min
[24] = ozone 70 ppm to 1.0 bar for 20 min, evacuation 0.3 bar, then CO2 1.3 bar 15 min
[25] = ozone 70 ppm to 1.0 bar for 30 min, evacuation 0.3 bar, then CO2 1.3 bar 15 min
[26] = ozone 70 ppm to 1.3 bar 5 min, evacuation 0.3 bar, then CO2 1.3 bar 15 min
[27] = ozone 100 ppm to 1.3 bar 5 min, evacuation 0.3 bar, then CO2 1.3 bar 15 min
[28] = ozone 130 ppm to 1.3 bar 5 min, evacuation 0.3 bar, then CO2 1.3 bar 15 min
[29] = ozone 160 ppm to 1.3 bar 5 min, evacuation 0.3 bar, then CO2 1.3 bar 15 min

ozone and carbon dioxide
hatching of silkworm eggs (silkworm eggs): none of the silkworm eggs in the experimental group hatched | time to completely kill the pests (coccid insects; ozone 5 minutes at 1.0 bar, in synergy with carbon dioxide): about 30 minutes | time to completely kill the pests (coccid insects; ozone 5 minutes at 1.4 bar, then carbon dioxide): 15 min | pest control / pest elimination (coccid insects; two-stage fumigation, within 20 minutes): 100%

O=C=O [CO2, carbon dioxide]
mortality of mite eggs (mite eggs): 89% | time required to kill 90% of pests (dried apricot pests): over 24 hours | time required to achieve the minimal pest control (pests [1]): at least 120 minutes | time required to kill most of the pests (red flour beetle): at least 1.8 days | Lethal rate (Icerya purchasi; [3]): 72 ± 11% | Lethal rate (Icerya purchasi; [4]): 88 ± 11% | Lethal rate (Icerya purchasi; [5]): 97 ± 4% | Lethal rate (Icerya purchasi; [6]): 100 ± 0% | Lethal rate (Icerya purchasi; [7]): 100 ± 0% | Lethal rate (Icerya purchasi; [8]): 92 ± 11% | Lethal rate (Icerya purchasi; [9]): 100 ± 0% | Lethal rate (Icerya purchasi; [10]): 100 ± 0% | Lethal rate (Icerya purchasi; [11]): 100 ± 0% | Lethal rate (Icerya purchasi; [12]): 100 ± 0% | Lethal rate (Pseudococcidae; [3]): 81 ± 6% | Lethal rate (Pseudococcidae; [4]): 91 ± 8% | Lethal rate (Pseudococcidae; [5]): 100 ± 1% | Lethal rate (Pseudococcidae; [6]): 100 ± 0% | Lethal rate (Pseudococcidae; [7]): 100 ± 0% | Lethal rate (Pseudococcidae; [8]): 89 ± 8% | Lethal rate (Pseudococcidae; [9]): 100 ± 1% | Lethal rate (Pseudococcidae; [10]): 100 ± 0% | Lethal rate (Pseudococcidae; [11]): 100 ± 0% | Lethal rate (Pseudococcidae; [12]): 100 ± 0% | time required to achieve minimal pest control effects (aphids): one week | time required to achieve minimal pest control (pests [2]): more than 48 hours

O=[O+][O-] [ozone]
Lethal rate (Icerya purchasi; [13]): 100 ± 0% | Lethal rate (Icerya purchasi; [14]): 96 ± 3% | Lethal rate (Icerya purchasi; [15]): 85 ± 12% | Lethal rate (Icerya purchasi; [16]): 68 ± 17% | Lethal rate (Icerya purchasi; [17]): 48 ± 16% | Lethal rate (Icerya purchasi; [18]): 37 ± 18% | Lethal rate (Icerya purchasi; [19]): 76 ± 10% | Lethal rate (Icerya purchasi; [20]): 64 ± 14% | Lethal rate (Icerya purchasi; [21]): 68 ± 9% | Lethal rate (Icerya purchasi; [22]): 87 ± 9% | Lethal rate (Icerya purchasi; [23]): 100 ± 1% | Lethal rate (Icerya purchasi; [24]): 100 ± 0% | Lethal rate (Icerya purchasi; [25]): 100 ± 0% | Lethal rate (Icerya purchasi; [26]): 98 ± 3% | Lethal rate (Icerya purchasi; [27]): 100 ± 0% | Lethal rate (Icerya purchasi; [28]): 100 ± 0% | Lethal rate (Icerya purchasi; [29]): 100 ± 0% | Lethal rate (Pseudococcidae; [13]): 100 ± 0% | Lethal rate (Pseudococcidae; [14]): 91 ± 5% | Lethal rate (Pseudococcidae; [15]): 82 ± 10% | Lethal rate (Pseudococcidae; [16]): 71 ± 13% | Lethal rate (Pseudococcidae; [17]): 52 ± 14% | Lethal rate (Pseudococcidae; [18]): 30 ± 17% | Lethal rate (Pseudococcidae; [19]): 81 ± 11% | Lethal rate (Pseudococcidae; [20]): 61 ± 16% | Lethal rate (Pseudococcidae; [21]): 71 ± 10% | Lethal rate (Pseudococcidae; [22]): 91 ± 7% | Lethal rate (Pseudococcidae; [23]): 100 ± 0% | Lethal rate (Pseudococcidae; [24]): 100 ± 0% | Lethal rate (Pseudococcidae; [25]): 100 ± 0% | Lethal rate (Pseudococcidae; [26]): 93 ± 7% | Lethal rate (Pseudococcidae; [27]): 100 ± 0% | Lethal rate (Pseudococcidae; [28]): 100 ± 0% | Lethal rate (Pseudococcidae; [29]): 100 ± 0% | Lethal rate (coccid insects; ozone 70 ppm, 90 minutes after the treatment in Step 3): 100% | final lethal rate (coccid insects; vacuum pressure 0.4 or 0.5 bar, ozone 70 ppm, after 90 minutes of ozone treatment): 100%
